Laboratory results from paper PMC11357990, “A first-in-class selective inhibitor of EGFR and PI3K offers a single-molecule approach to targeting adaptive resistance” (Nature Cancer, 2024).

How the values were obtained:
[1] = molecular target: T1, PDE4D2 (h) (Homo sapiens, UniProt Q08499); set-up: Eurofins SafetyScreen 87 enzyme part: inhibition of control enzyme activity, single concentration; settings: mean of 2, 10 µM, inhibitor
T1 construct: gene PDE4D; isoform PDE4D2

[2] = molecular target: T2, MAO-B (h) recombinant enzyme (Homo sapiens, UniProt P27338); set-up: Eurofins SafetyScreen 87 enzyme part: inhibition of control enzyme activity, single concentration; settings: mean of 2, 10 µM, inhibitor
T2 construct: gene MAOB; recombinant enzyme
T2 sequence (P27338 whole entry): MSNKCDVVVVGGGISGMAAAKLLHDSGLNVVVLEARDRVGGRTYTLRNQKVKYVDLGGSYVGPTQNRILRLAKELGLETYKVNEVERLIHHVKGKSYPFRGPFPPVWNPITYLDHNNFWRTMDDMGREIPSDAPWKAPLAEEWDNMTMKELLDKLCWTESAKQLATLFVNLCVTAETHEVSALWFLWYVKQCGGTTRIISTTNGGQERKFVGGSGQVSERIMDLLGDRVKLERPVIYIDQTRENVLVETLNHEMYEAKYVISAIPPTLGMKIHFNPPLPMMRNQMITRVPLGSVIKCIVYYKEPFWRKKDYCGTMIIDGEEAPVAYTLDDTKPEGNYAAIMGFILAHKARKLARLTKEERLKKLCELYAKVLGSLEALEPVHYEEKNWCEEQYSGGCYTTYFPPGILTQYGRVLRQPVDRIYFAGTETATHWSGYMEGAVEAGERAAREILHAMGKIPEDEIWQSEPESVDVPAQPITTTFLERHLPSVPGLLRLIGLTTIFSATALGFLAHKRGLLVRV

[3] = molecular target: PDE3A (h) (Homo sapiens, UniProt Q14432); set-up: Eurofins SafetyScreen 87 enzyme part: inhibition of control enzyme activity, single concentration; settings: mean of 2, 10 µM, inhibitor
[4] = molecular target: IRK (h) (InsR) (Homo sapiens, UniProt P06213); set-up: Eurofins SafetyScreen 87 enzyme part: inhibition of control enzyme activity, single concentration; settings: mean of 2, 10 µM, inhibitor
[5] = molecular target: T3, PKCalpha (h) (Homo sapiens, UniProt P17252); set-up: Eurofins SafetyScreen 87 enzyme part: inhibition of control enzyme activity, single concentration; settings: mean of 2, 10 µM, inhibitor
T3 construct: gene PRKCA

[6] = molecular target: ACE (h) (Homo sapiens, UniProt P12821); set-up: Eurofins SafetyScreen 87 enzyme part: inhibition of control enzyme activity, single concentration; settings: mean of 2, 10 µM, inhibitor
ACE (h), sequence (P12821 whole entry): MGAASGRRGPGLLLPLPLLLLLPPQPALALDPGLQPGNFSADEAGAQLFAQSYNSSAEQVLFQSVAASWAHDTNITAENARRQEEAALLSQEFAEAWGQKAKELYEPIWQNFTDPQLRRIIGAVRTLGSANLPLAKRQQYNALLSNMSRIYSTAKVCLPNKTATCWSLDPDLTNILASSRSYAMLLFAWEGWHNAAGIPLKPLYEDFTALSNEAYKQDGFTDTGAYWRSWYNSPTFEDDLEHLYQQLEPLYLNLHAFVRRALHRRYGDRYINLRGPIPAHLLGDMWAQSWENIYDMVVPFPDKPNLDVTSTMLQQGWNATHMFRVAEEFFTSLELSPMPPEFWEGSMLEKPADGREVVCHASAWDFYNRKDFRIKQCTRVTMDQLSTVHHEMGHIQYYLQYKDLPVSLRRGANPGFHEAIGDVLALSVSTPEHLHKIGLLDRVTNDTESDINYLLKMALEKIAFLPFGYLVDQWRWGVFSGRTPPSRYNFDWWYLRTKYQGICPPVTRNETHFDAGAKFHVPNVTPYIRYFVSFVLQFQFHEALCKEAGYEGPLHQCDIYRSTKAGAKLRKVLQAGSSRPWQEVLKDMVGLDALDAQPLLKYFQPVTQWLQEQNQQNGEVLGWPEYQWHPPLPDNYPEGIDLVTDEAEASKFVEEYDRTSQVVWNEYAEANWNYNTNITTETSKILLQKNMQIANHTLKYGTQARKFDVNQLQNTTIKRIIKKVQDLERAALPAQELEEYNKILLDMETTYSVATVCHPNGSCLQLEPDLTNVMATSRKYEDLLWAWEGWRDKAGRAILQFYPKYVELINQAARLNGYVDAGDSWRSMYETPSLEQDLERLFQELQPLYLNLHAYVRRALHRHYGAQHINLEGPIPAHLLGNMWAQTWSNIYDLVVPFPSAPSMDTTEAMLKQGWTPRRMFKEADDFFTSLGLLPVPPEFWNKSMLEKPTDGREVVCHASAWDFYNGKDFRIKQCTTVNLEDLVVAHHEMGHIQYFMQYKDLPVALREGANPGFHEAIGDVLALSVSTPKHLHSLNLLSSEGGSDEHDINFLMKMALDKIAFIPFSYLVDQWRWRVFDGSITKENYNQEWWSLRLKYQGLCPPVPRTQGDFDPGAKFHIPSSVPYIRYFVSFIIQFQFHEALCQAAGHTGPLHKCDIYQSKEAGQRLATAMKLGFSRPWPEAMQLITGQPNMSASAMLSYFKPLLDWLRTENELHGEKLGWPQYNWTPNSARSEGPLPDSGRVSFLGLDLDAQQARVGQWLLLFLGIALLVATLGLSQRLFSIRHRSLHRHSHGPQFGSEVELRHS

[7] = molecular target: T4, COX1(h) (Homo sapiens, UniProt P23219); set-up: Eurofins SafetyScreen 87 enzyme part: inhibition of control enzyme activity, single concentration; settings: mean of 2, 10 µM, inhibitor
T4 construct: gene PTGS1
T4 sequence (P23219 whole entry): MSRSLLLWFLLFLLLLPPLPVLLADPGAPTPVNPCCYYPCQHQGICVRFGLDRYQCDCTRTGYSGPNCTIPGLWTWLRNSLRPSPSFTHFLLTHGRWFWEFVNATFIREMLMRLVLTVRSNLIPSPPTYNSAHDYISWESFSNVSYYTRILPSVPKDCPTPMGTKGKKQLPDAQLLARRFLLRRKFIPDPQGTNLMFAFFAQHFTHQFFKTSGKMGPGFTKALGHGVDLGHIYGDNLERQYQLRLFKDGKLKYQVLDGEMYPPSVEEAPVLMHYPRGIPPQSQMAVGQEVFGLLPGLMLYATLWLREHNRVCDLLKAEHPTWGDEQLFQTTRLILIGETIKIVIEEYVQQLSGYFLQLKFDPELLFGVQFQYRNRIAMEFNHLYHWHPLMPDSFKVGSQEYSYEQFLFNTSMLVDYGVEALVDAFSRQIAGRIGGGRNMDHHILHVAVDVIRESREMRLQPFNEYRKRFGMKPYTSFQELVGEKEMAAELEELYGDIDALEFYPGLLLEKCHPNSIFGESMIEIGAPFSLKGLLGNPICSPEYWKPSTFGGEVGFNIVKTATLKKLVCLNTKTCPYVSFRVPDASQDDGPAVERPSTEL

[8] = molecular target: T5, COX2(h) (Homo sapiens, UniProt P35354); set-up: Eurofins SafetyScreen 87 enzyme part: inhibition of control enzyme activity, single concentration; settings: mean of 2, 10 µM, inhibitor
T5 construct: gene PTGS2
T5 sequence (P35354 whole entry): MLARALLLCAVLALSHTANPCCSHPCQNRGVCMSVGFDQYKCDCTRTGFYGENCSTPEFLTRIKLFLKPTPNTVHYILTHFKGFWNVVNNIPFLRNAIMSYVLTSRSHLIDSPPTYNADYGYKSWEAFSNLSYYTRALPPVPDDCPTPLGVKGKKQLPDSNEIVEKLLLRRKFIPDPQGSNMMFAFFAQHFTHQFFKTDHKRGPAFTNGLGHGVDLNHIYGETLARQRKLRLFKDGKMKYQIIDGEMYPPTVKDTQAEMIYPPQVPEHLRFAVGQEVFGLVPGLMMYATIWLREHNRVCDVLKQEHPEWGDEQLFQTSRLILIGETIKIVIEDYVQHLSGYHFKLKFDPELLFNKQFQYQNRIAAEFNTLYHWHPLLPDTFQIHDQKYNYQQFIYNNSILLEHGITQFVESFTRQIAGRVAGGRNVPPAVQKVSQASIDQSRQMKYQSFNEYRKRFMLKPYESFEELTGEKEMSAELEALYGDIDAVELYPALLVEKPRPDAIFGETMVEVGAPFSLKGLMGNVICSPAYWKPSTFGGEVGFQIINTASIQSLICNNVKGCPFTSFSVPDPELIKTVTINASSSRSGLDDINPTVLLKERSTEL

[9] = molecular target: T6, cathepsin G (h) (Homo sapiens, UniProt P08311); set-up: Eurofins SafetyScreen 87 enzyme part: inhibition of control enzyme activity, single concentration; settings: mean of 2, 10 µM, inhibitor
T6 construct: gene CTSG
T6 sequence (P08311 whole entry): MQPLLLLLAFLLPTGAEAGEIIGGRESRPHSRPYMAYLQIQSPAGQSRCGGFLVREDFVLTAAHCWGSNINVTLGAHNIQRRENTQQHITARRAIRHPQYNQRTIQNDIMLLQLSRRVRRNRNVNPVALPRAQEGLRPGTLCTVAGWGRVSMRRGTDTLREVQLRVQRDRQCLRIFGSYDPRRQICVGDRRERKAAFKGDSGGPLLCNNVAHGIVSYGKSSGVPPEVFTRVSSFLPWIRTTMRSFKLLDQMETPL

[10] = molecular target: Lck kinase (h) (Homo sapiens, UniProt P06239); set-up: Eurofins SafetyScreen 87 enzyme part: inhibition of control enzyme activity, single concentration; settings: mean of 2, 10 µM, inhibitor
[11] = molecular target: T7, HER4 (Homo sapiens, UniProt Q15303); assay: biochemical; set-up: Purified kinase inhibition, Z'-LYTE (HER, mTOR, DNA-PK) or Adapta (PI3K), ATP at Km apparent
T7 construct: gene ERBB4; Km ATP
Protocol: (§1) IC50 values were determined at a concentration of ATP corresponding to the Km apparent for that kinase.

[12] = molecular target: T8, mTOR (Homo sapiens, UniProt P42345); assay: biochemical; set-up: Purified kinase inhibition, Z'-LYTE (HER, mTOR, DNA-PK) or Adapta (PI3K), ATP at Km apparent
T8 construct: Km ATP
Protocol: as §1

[13] = molecular target: PI3Kγ (Homo sapiens, UniProt P48736); assay: X-ray cocrystal structure ([…] Å); purified kinase assay IC50; type: biochemical; set-up: gene PIK3CG; S144-A1102
PI3Kγ, sequence (P48736 144-1102): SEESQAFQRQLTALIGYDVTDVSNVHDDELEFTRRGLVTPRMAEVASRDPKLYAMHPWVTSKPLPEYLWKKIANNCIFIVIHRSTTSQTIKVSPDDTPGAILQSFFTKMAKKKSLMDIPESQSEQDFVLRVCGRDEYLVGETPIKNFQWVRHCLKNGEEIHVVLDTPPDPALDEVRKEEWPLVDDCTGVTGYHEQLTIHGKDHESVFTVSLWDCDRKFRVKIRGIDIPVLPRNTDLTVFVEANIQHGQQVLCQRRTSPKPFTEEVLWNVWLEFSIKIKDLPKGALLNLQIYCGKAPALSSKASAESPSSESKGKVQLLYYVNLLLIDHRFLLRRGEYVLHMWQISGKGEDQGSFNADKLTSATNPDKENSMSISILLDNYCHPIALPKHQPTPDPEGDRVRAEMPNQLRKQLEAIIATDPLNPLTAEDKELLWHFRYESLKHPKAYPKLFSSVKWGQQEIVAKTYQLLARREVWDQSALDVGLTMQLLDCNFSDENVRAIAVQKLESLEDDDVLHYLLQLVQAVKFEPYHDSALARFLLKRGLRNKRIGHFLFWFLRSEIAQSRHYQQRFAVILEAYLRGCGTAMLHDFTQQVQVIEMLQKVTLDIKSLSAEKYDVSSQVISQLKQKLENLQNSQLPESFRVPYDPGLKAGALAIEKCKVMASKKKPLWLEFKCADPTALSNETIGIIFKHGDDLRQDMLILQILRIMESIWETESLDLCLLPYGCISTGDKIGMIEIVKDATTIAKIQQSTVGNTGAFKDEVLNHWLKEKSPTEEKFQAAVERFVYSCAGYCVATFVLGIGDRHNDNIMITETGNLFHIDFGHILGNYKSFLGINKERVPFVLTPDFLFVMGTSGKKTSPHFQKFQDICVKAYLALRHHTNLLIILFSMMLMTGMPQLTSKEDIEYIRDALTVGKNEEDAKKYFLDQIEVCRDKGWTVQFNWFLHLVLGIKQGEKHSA

T1 sequence (Q08499 whole entry, canonical isoform): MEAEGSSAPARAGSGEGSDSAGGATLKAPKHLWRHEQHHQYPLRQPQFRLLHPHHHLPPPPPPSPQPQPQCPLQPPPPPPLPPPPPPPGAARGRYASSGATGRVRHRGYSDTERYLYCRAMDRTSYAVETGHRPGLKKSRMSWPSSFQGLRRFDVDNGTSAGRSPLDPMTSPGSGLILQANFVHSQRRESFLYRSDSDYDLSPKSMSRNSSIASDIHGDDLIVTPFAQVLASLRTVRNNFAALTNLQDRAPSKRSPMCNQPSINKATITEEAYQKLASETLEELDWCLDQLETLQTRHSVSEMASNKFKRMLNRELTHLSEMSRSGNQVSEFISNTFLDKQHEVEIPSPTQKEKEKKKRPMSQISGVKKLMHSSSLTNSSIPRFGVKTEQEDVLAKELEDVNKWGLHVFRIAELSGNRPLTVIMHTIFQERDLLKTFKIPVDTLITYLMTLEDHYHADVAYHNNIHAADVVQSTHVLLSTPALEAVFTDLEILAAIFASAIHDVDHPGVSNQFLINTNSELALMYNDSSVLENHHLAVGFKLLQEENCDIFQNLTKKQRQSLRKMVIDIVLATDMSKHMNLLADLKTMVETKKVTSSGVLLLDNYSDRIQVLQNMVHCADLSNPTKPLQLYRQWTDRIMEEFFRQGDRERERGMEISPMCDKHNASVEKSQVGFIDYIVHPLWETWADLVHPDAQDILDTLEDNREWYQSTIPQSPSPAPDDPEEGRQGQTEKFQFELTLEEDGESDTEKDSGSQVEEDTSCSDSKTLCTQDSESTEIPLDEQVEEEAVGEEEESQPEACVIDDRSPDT

In the case of `C[C@@H](Nc1ncnc2ccc(-c3cnc(Cl)c(NS(C)(=O)=O)c3)cc12)c1ccccc1` [MTX-531, (R)-N-(2-chloro-5-(4-((1-phenylethyl)amino)quinazolin-6-yl)pyridin-3-yl)methane-sulfonamide], the “% inhibition of control enzyme activity” value [1] is reported as 88%, the “% inhibition of control enzyme activity” value [2] is reported as 10% and the “% inhibition of control enzyme activity” value [3] is reported as 29%. The “% inhibition of control enzyme activity” value [4] was 0%, the “% inhibition of control enzyme activity” value [5] was -3% and the “% inhibition of control enzyme activity” value [6] was -2%. For the same compound, the “% inhibition of control enzyme activity” value [7] was -4%, the “% inhibition of control enzyme activity” value [8] was -3% and the “% inhibition of control enzyme activity” value [9] was 26%. For the same compound, the “% inhibition of control enzyme activity” value [10] was 4%, the IC50 [11] was greater than 10000 nM and the IC50 [12] was 105 nM. It also gave an IC50 [13] of 8.3 nM.
